Assays:
[1] = system: New Zealand white rabbits fed a high fat diet; assay: High fat diet-fed New Zealand white rabbit model, daily pentadecanoic acid in diet; type: in vivo
Experimental: This study examined the impact of daily oral administration of synthetic pentadecanoic acid (C15:0) on serum globulins, cholesterol, and liver fibrosis in an animal model fed a high fat diet. Sixteen New Zealand white rabbits were fed a high fat diet (HFD) (4% peanut oil and 0.5% cholesterol) for 2 weeks. Study rabbits were then divided into the following two groups of eight: high fat diet controls, and high fat diet animals treated with pentadecanoic acid (35 mg/kg body weight). The test article was a synthetic powder form stable at room temperature and purchased from Sigma-Aldrich (Products W433400 (≥99% pentadecanoic acid). The test article was provided daily in the diet for 11 weeks (77 days) while continuing ad libitum access to the HFD. Total cholesterol, platelets, and globulins were measured at Days 0 and 77.
On Day 77, liver tissues from HFD controls and pentadecanoic acid-treated animals were collected and scored histologically for fibrosis by a board-certified veterinary pathologist. Liver tissues were processed into paraffin-embedded blocks for H&E and picrosirius red staining for fibrosis (collagen deposition). Whole picrosirius red stained liver slides were scanned using Aperio ScanScope AT2 at 20×. Fibrosis stages were defined as follows: 0=none, 1=persinusoidal or periportal, 2=perisinusoidal and portal/periportal, 3=bridging fibrosis, 4=cirrhosis. Data from the treated group were compared to the control group using Wilcoxon rank sum analyses. Significance was defined as a P value less than or equal to 0.05.

[2] = system: HDF3CGF system: dermal fibroblasts (IFNγ, TNFα, IL-1β, EGF, bFGF, PDGF-BB); assay: BioMAP Diversity PLUS, HDF3CGF system; type: cell-based, human; conditions: HD3CGF (so in the source)
Excerpt: (§1) The Diversity PLUS panel allows test agent characterization in an unbiased way across a broad set of systems modeling various human disease states. These systems are designed to model complex human tissue and disease biology of the vasculature, skin, lung, and inflammatory tissues. Quantitative measurements of 148 biomarker activities across this broad panel, along with comparative analysis of biological activities from known bioactive agents, were used to predict and compare the efficacy and function of each selected compound at four concentrations (740 nm and 2.2, 6.7 and 20 μM).
(§2) BioMAP systems are constructed with one or more primary cell types from healthy human donors, with stimuli (such as cytokines or growth factors) added to capture relevant signaling networks that naturally occur in human tissue or pathological conditions. Vascular biology is modeled in both a Th1 (3C system) and a Th2 (4H system) inflammatory environment, as well as in a Th1 inflammatory state specific to arterial smooth muscle cells (CASM3C system). Additional systems recapitulate aspects of the systemic immune response including monocyte-driven Th1 inflammation (LPS system) or T cell stimulation (SAg system), chronic Th1 inflammation driven by macrophage activation (lMphg system) and the T cell-dependent activation of B cells that occurs in germinal centers (BT system). The BE3C system (Th1) and the BF4T system (Th2) represent airway inflammation of the lung, while the MyoF system models myofibroblast-lung tissue remodeling. Lastly, skin biology is addressed in the KF3CT system modeling Th1 cutaneous inflammation and the HDF3CGF system modeling wound healing.
(§3) Each test agent generates a signature BioMAP profile that is created from the changes in protein biomarker readouts within individual system environments. Biomarker readouts (7-17 per system) are selected for therapeutic and biological relevance, are predictive for disease outcomes or specific drug effects and are validated using agents with known mechanism of action (MoA). Each readout is measured quantitatively by immune-based methods that detect protein (e.g., ELISA) or functional assays that measure proliferation and viability. BioMAP readouts are diverse and include cell surface receptors, cytokines, chemokines, matrix molecules and enzymes. In total, the Diversity PLUS panel contains 148 biomarker readouts that capture biological changes that occur within the physiological context of the particular BioMAP system. Specific BioMAP activities have been correlated to in vivo biology, and multiparameter BioMAP profiles have been used to distinguish compounds based on MoA and target selectivity across diverse physiological systems.
(§4) Activated BioMAP systems were incubated with each compound for 24 to 72 hours. Protein-based biomarkers from activated cell systems were measured and compared with non-treated control systems.

[3] = system: BT system: peripheral blood mononuclear cells, B cells (α-IgM, TCR ligands); assay: BioMAP Diversity PLUS, BT system; type: cell-based, human
Excerpt: as §1, §2, §3, §4

[4] = system: Primary dermal fibroblasts stimulated with IL-1β, TNFα, IFNγ, EGF, bFGF, and PDGF-BB; assay: Third cell-based system: fibrosis and cell proliferation; parameters: species or system human
Experimental: This study examined the impact of synthetic pentadecanoic acid (C15:0) at four concentrations (740 nm and 2.2, 6.7, and 20 μM) on three primary human cell-based activity systems that were exposed to agents that mimicked allergic, thrombotic, and fibrotic disease states. In general, protein-based biomarkers in these systems were measured and compared with controls. Pentadecanoic acid was considered ‘active’ when 2 or more consecutive concentrations changed a given biomarker in the same direction relative to vehicle controls, were outside of the significance envelope of internal controls, and had at least one concentration with an effect size greater than 20% (log 10 ratio >0.1).
The third cell-based system recapitulated fibrosis and cell proliferation. Primary dermal fibroblasts were stimulated with IL-1β, TNFα, IFNγ, EGF, bFGF, and PDGF-BB and incubated with pentadecanoic acid for 24 hours. In addition to controls that were not treated with pentadecanoic acid, a negative, non-stimulated system was also included. Plasminogen activator inhibitor-1 (PAI-1), Collagen-I and fibroblast proliferation (at 72 hours) in this system were measured and compared with controls.

[5] = 24 hours incubation, 6.7 μM and 20 μM bioactive, vs controls

With `CCCCCCCCCCCCCCC(=O)O` [Pentadecanoic acid, pentadecanoic acid] the Early mortalities ([1]; 35 mg/kg daily in diet, 11 weeks) was “no early mortalities”, the “Tolerability of test article” value ([1]; 35 mg/kg daily in diet, 11 weeks, HFD rabbits) was “tolerated the test article throughout the study” and the “Stage 3 bridging fibrosis in liver (FIG. 1)” value ([1]; 35 mg/kg daily oral for 11 weeks, histology, picrosirius red) was “lack of Stage 3 bridging fibrosis”. The “Platelets compared with HFD control group” value ([1]; Day 77, 35 mg/kg, HFD rabbits) was “lower”, the Globulins ([1]; Index at Day 77 (head), 35 mg/kg dose daily in diet 11 weeks, HFD rabbits, P 0.004) was 1.3 ± 0.7 G/dl and the Cholesterol ([1]; Index at Day 77 (head), 35 mg/kg dose daily in diet 11 weeks, HFD rabbits, plasma, P 0.024) was 2516 ± 746 mg/dL. For the same molecule, the “Liver Fibrosis Stage” value ([1]; Index at Day 77 (head), 35 mg/kg dose, n = 8, stage score 0-4, P 0.016) was 2.3 ± 0.5, the “Significant log10 reduction vs nontreated controls: 72-hour fibroblast proliferation” value ([2]; 6.7 μM) was −0.67 log10 and the “Significant log10 reduction vs nontreated controls: Collagen I” value ([2]; 6.7 μM) was −0.07 log10. For the same molecule, the “Significant log10 reduction vs nontreated controls: Plasminogen activation inhibitor 1 (PAI-1)” value ([2]; 6.7 μM) was −0.08 log10, the “Significant log10 reduction vs nontreated controls: 72-hour fibroblast proliferation” value ([2]; 20.0 μM) was −1.1 log10 and the “Significant log10 reduction vs nontreated controls: Collagen I” value ([2]; 20.0 μM) was −0.13 log10. The “Significant log10 reduction vs nontreated controls: Collagen III” value ([2]; 20.0 μM) was −0.13 log10, the “Significant log10 reduction vs nontreated controls: Interferon gamma-induced protein 10 (IP-10)/CXCL10” value ([2]; 20.0 μM) was −0.14 log10 and the “Significant log10 reduction vs nontreated controls: Interferon-inductible T cell alpha chemoattractant (I-TAC)/CXCL11” value ([2]; 20.0 μM) was −0.17 log10. The “Significant log10 reduction vs nontreated controls: Monokine induced by gamma interferon (MIG)/CXCL9” value ([2]; 20.0 μM) was −0.10 log10, the “Significant log10 reduction vs nontreated controls: Plasminogen activation inhibitor 1 (PAI-1)” value ([2]; 20.0 μM) was −0.13 log10 and the “Significant log10 reduction vs nontreated controls: Vascular cell adhesion molecule 1 (VCAM-1)” value ([2]; 20.0 μM) was −0.28 log10. For the same molecule, the “Significant log10 reduction vs nontreated controls: Secreted interleukin 17A (IL-17A)” value ([3]; 2.2 μM) was −0.25 log10, the “Significant log10 reduction vs nontreated controls: Secreted interleukin 17F (IL-17F)” value ([3]; 2.2 μM) was −0.16 log10 and the “Significant log10 reduction vs nontreated controls: Secreted immunoglobulin G (IgG)” value ([3]; 6.7 μM) was −0.17 log10. The “Significant log10 reduction vs nontreated controls: Secreted immunoglobulin G (IgG)” value ([3]; 20.0 μM) was −0.55 log10, the “Significant log10 reduction vs nontreated controls: Secreted interleukin 6 (IL-6)” value ([3]; 20.0 μM) was −0.29 log10 and the “Significant log10 reduction vs nontreated controls: Secreted interleukin 17A (IL-17A)” value ([3]; 20.0 μM) was −0.29 log10. The “Significant log10 reduction vs nontreated controls: Secreted interleukin 17F (IL-17F)” value ([3]; 20.0 μM) was −0.18 log10, the “Collagen-I (FIG. 4)” value [4, 5] was “decreases” and the “PAI-1 (FIG. 4)” value [4, 5] was “decreases”. For the same molecule, the “72-hour fibroblast proliferation (FIG. 4)” value ([4]; 72 hours, 6.7 μM and 20 μM bioactive, vs controls) was “decreases” and the Cytotoxicity ([4]; all four concentrations (740 nm and 2.2, 6.7, and 20 μM)) was “non-cytotoxic”.

Reference: patent US20240016773A1, “COMPOSITIONS AND METHODS FOR DIAGNOSIS AND TREATMENT OF CONDITIONS RELATED TO AGING” (EPITRACKER, INC., priority 2018, published 2024)
